“And” between values parts separate entries of the source, which are not always exact repeats. Identical values can stand only once. Counter-ions that a name gives are not always drawn. Like-named read-outs stand apart in the source and are kept apart here.
Legend:
[1] = system: MV-4-11; test: Antiproliferation assay (Assay 7), MV-4-11; assay type: cell-based; conditions: CellTiter-Glo, several values per example
Description: Assessment of the Anti-Proliferative Effect of Compounds in Different Cell Lines
The impact of compounds on the proliferation of different cell lines was assessed using the CellTiter-Glo® Luminescent Cell Viability reagent from Promega (G7573).
In parallel, cells were plated in a reference (day 0) plate for time zero determination.
Rim wells were excluded. The cells were incubated for 72 hours in a humidified incubator at 37° C. The day 0 plate was measured by adding 30 μL/well of CTG solution (CellTiter-Glo® Luminescent Cell Viability reagent, Promega G7573) to time zero wells in the reference plate followed by a 10 minutes incubation and luminescence reading at 0.1 ms. using the PHERAstar FS microplate reader (BMG Labtech).
After 72 hours incubation, the treated plates were measured in the same way as the day 0 plate mentioned above.

[2] = system: SUDHL5; test: Induction of caspase-3/7 activity (Assay 4), SUDHL5; assay type: cell-based; conditions: caspase-3/7 induction, median
How it was run: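 DLBCL cells were exposed to compounds for 3 hours at 37 °C, then caspase-3/7 activation was read with Caspase-Glo 3/7 reagent. After subtracting medium-only background, EC50s were derived with fixed C0=1 and the reference compound's maximal induction as plateau.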

[3] = molecular target: BCL-XL (Homo sapiens (Human), UniProt Q07817); test: Protein-protein interaction assay BCL-XL/Bad BH3 peptide (BCL-XL assay, TR-FRET); assay type: binding; conditions: His-BCL-XL / Bad BH3 peptide, median
Sequence of BCL-XL (Q07817 other isoform, or with tags, fused parts or gaps): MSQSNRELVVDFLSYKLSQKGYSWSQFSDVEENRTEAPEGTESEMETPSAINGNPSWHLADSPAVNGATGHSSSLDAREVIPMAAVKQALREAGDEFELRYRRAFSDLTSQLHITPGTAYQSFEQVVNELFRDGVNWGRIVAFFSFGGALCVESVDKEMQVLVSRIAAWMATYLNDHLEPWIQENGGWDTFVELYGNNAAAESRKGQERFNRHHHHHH
Description: Assay 2 Protein-Protein Interaction Assay: BCL-XL/Bad BH3 Peptide (BCL-XL Assay)
The dose-dependent inhibition by the compounds described in this invention of the interaction between BCL-XL and the BH3 domain of Bad (both human) was determined using a steady state binding competition assay with time-resolved fluorescence energy transfer (TR-FRET) readout. For that purpose BCL-XL (amino acids 1-212, C-terminal fused to a hexahistidine (6×His) tag (SEQ ID 3) and a synthetic Bad BH3-derived peptide of sequence Biotin-PEG2-PEG2-NLWAAQRYGRELRR-Nle-SDEFVDSFKK-amide (SEQ ID 4) served as protein receptor and tracer ligand respectively. The recombinant BCL-XL protein (expressed in E. coli) was purchased from BPS Bioscience (San Diego, Calif., USA). The Bad BH3-derived peptide can be obtained from e.g. Biosyntan (Berlin, Germany).
In the assay 11 different concentrations of each compound (0.1 nM, 0.33 nM, 1.1 nM, 3.8 nM, 13 nM, 44 nM, 0.15 μM, 0.51 μM, 1.7 μM, 5.9 μM and 20 μM) were typically measured as duplicates in the same microtiter plate. For that, 100-fold concentrated DMSO solutions were prepared by serial dilutions (1:3.4) of a 2 mM stock solution in a clear, 384-well microtiter plate (Greiner Bio-One, Frickenhausen, Germany). From there, 50 nl were transferred in a dark test plate (Greiner Bio-One, Frickenhausen, Germany). The assay was initiated by addition of 2 μl of a 2.5-fold concentrated His-BCL-XL solution (usually for a 1 nM end concentration in 5 μl reaction volume) in aqueous assay buffer [50 mM Tris/HCl pH 7, 100 mM sodium chloride (NaCl), 50 mM potassium fluoride (KF), 0.005% Tween-20, 2 mM DTT, 0.1% bovine gamma globulin (BGG)] to the compounds in the assay plate. This was followed by a 10-minute incubation step at 22° C. for pre-equilibration of the putative complex between His-BCL-XL and the compounds. After that, 3 μl of a 1.67-fold concentrated solution (in assay buffer) consisting of Bad BH3-derived peptide (1 nM end concentration) and TR-FRET detection reagents [1.67 nM anti-His-Eu cryptate and 1.67 nM streptavidin-XL665 (both from Cisbio Bioassays, Codolet, France)], were added.
The mixture was incubated in the dark for one hour at 22° C. and then overnight at 4° C. The formation of BCL-XL/Bad complexes was determined by measuring the resonance energy transfer of the anti-His- Eu-cryptate antibody to the streptavidin-XL665 present in the reaction. For that purpose, the fluorescence emission at 620 nm and 665 nm after excitation at 330-350 nm was measured in a TR-FRET measuring instrument, for instance a Rubystar or a Pherastar (both from BMG Lab Technologies, Offenburg, Germany) or a Viewlux (Perkin-Elmer). The ratio of the emission at 665 nm and at 622 nm was used as indicator of the amount of BCL-XL/Bad complexes present.
The resulting data (ratio) were normalized, taking 0% inhibition as the mean value of control measurements (usually 32 data points) where all reagents were included. In this case 50 nl DMSO were used instead of compounds. A 100% inhibition corresponded to the mean value of control measurements (usually 32 data points) where all reagents except BCL-XL were included. IC50 values were determined by regression analysis based on a 4 parameter equation (minimum, maximum, IC50, Hill; Y=Max+(Min−Max)/(1+(X/IC50)^HiII) using the Screener Software (Genedata).

[4] = system: AMO-1; test: Antiproliferation assay (Assay 7), AMO-1; assay type: cell-based; conditions: CellTiter-Glo, 72 hours, several values per example
How it was run: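 Proliferation was read by CellTiter-Glo luminescence after 72 hours of compound treatment at 37° C. The read was referenced to a parallel plate measured at time zero.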

[5] = Homo sapiens, MV4-11, 72 h, read-out: Antiproli MV-4-11 [M] IC50
[6] = read-out: Antiproli AMO-1 [M] IC50

Row | EC50 ([2]; Homo sapiens, SU-DHL-5, 3 h) [µM] | IC50 [3] [µM] | EC50 ([2]; 3 hours) [µM] | SMILES | other results
1 | 4.8 | > 20 | – | Cc1c2c(nn1C)CN(CCN1CCOCC1)S(=O)(=O)CCCn1c(C(=O)O)c(CCCOc3cccc4ccccc34)c3cccc-2c31 (racemic) [Example 1, (rac)-2,3-Dimethyl-14-[2-(morpholin-4-yl)ethyl]-7-{3-[(naphthalen-1-yl)oxy]propyl}-13,13-dioxo-10,11,12,13,14,15-hexahydro-2H-13λ^6-pyrazolo[3′,4′:4,5][1,2,8]thiadiazacycloundecino-[6,7,8-hi]indole-8-carboxylic acid] | IC50 ([1]; 72 hours, listed as 01, read-out: Antiproli MV-4-11 [M] IC50): 1.8e-05 M and 2.38e-05 M; IC50 [1, 5]: 1.73e-05 M
2 | 1.3 | > 20 | – | CCc1c2c(nn1C)CN(C)S(=O)(=O)CCCn1c(C(=O)O)c(CCCOc3cccc4c3CCCC4)c3ccc(F)c-2c31 (racemic) [Example 34, (rac)-12-Ethyl-13-fluoro-8,11-dimethyl-1-(3-((5,6,7,8-tetrahydronaphthalen-1-yl)oxy)propyl)-5,6,9,11-tetrahydro-4H,8H-pyrazolo[3′,4′:4,5][1]thia[2,8]diazacycloundecino[6,7,8-hi]indole-2-carboxylic acid 7,7-dioxide] | IC50 [1, 5]: 4.83e-06 M
3 | – | – | 0.13 | Cc1c2c(nn1C)CN(C)S(=O)(=O)CCCn1c(C(=O)O)c(CCCOc3cccc4ccccc34)c3ccc(Cl)c-2c31 (single isomer, unassigned; enantiomer 1) [Example 5, 4-Chloro-2,3,14-trimethyl-7-{3-[(naphthalen-1-yl)oxy]propyl}-13,13-dioxo-10,11,12,13,14,15-hexahydro-2H-13λ^6-pyrazolo[3′,4′:4,5][1,2,8]thiadiazacycloundecino[6,7,8-hi]indole-8-carboxylic acid-N-ethylethanamine salt (Enantiomer 1)] | IC50 ([4]; listed as 05, read-out: Antiproli AMO-1 [M] IC50): 1.5e-06 M
4 | – | > 20 | 0.34 | Cc1c2c(nn1C)CNS(=O)(=O)CCCn1c(C(=O)O)c(CCCOc3cccc4cc(F)ccc34)c3ccc(Cl)c-2c31 (single isomer, unassigned; enantiomer 1) [Example 51, 4-chloro-7-{3-[(6-fluoronaphthalen-1-yl)oxy]propyl}-2,3-dimethyl-13,13-dioxo-10,11,12,13,14,15-hexahydro-2H-13lambda^6-pyrazolo[3′,4′:4,5][1,2,8]thiadiazacycloundecino[6,7,8-hi]indole-8-carboxylic acid (Enantiomer 1)] | –
5 | – | > 20 | 0.022 | CCc1c2c(nn1C)C(CCC1CCOCC1)N(C)S(=O)(=O)CCCn1c(C(=O)O)c(CCCOc3cccc4cc(F)ccc34)c3ccc(Cl)c-2c31 (single isomer, unassigned; enantiomer 1) [Example 61, (+)-4-chloro-3-ethyl-7-{3-[(6-fluoronaphthalen-1-yl)oxy]propyl}-2,14-dimethyl-15-[2-(oxan-4-yl)ethyl]-13,13-dioxo-10,11,12,13,14,15-hexahydro-2H-13lambda^6-pyrazolo[3′,4′:4,5][1,2,8]thiadiazacycloundecino[6,7,8-hi]indole-8-carboxylic acid (Enantiomer 1)] | IC50 [4, 6]: 2.5e-08 M and 2.8e-08 M
6 | – | > 20 | > 33 | Cc1c2c(nn1C)CN(CCN1CCOCC1)S(=O)(=O)CCCn1c(C(=O)O)c(CCCOc3cccc4ccccc34)c3cccc-2c31 (single isomer, unassigned; enantiomer 2) [Example 3, 2,3-Dimethyl-14-[2-(morpholin-4-yl)ethyl]-7-{3-[(naphthalen-1-yl)oxy]propyl}-13,13-dioxo-10,11,12,13,14,15-hexahydro-2H-13λ^6-pyrazolo[3′,4′:4,5][1,2,8]thiadiazacycloundecino-[6,7,8-hi]indole-8-carboxylic acid-N-ethylethanamine salt (Enantiomer 2)] | IC50 ([1]; 72 hours, listed as 03, read-out: Antiproli MV-4-11 [M] IC50): 1.54e-05 M
7 | – | 18 | 16 | Cc1c2c(nn1C)CN(C)S(=O)(=O)CCCn1c(C(=O)O)c(CCCOc3cccc4ccccc34)c3ccc(Cl)c-2c31 (single isomer, unassigned; enantiomer 2) [Example 6, 4-Chloro-2,3,14-trimethyl-7-{3-[(naphthalen-1-yl)oxy]propyl}-13,13-dioxo-10,11,12,13,14,15-hexahydro-2H-13λ^6-pyrazolo[3′,4′:4,5][1,2,8]thiadiazacycloundecino[6,7,8-hi]indole-8-carboxylic acid-N-ethylethanamine salt (Enantiomer 2)] | IC50 ([1]; 72 hours, listed as 06, read-out: Antiproli MV-4-11 [M] IC50): 2.02e-05 M
8 | – | – | 0.0073 | Cc1c2c(nn1C)C(CCN1CCOCC1)N(C)S(=O)(=O)CCCn1c(C(=O)O)c(CCCOc3cccc4cc(F)ccc34)c3ccc(Cl)c-2c31 (single isomer, unassigned; enantiomer 2) [Example 67, 4-chloro-7-{3-[(6-fluoronaphthalen-1-yl)oxy]propyl}-2,3,14-trimethyl-15-[2-(morpholin-4-yl)ethyl]-13,13-dioxo-10,11,12,13,14,15-hexahydro-2H-13lambda^6-pyrazolo[3′,4′:4,5][1,2,8]thiadiazacycloundecino[6,7,8-hi]indole-8-carboxylic acid (Enantiomer 2)] | –
9 | – | 19 | 0.04 | CCc1c2c(nn1C)C(CCC1CCOCC1)N(C)S(=O)(=O)CCCn1c(C(=O)O)c(CCCOc3cccc4cc(F)ccc34)c3ccc(Cl)c-2c31 (single isomer, unassigned; enantiomer 3) [Example 63, (+)-4-chloro-3-ethyl-7-{3-[(6-fluoronaphthalen-1-yl)oxy]propyl}-2,14-dimethyl-15-[2-(oxan-4-yl)ethyl]-13,13-dioxo-10,11,12,13,14,15-hexahydro-2H-13lambda^6-pyrazolo[3′,4′:4,5][1,2,8]thiadiazacycloundecino[6,7,8-hi]indole-8-carboxylic acid (Enantiomer 3)] | IC50 [4, 6]: 4e-08 M and 4.5e-08 M and 3.3e-08 M
10 | 4.8 | > 20 | – | CCc1c2c(nn1C)CN(CCN1CCOCC1)S(=O)(=O)CCCn1c(C(=O)O)c(CCCOc3cccc4cc(F)ccc34)c3ccc(Cl)c-2c31 [Example 77, (rac)-13-chloro-12-ethyl-1-(3-((6-fluoronaphthalen-1-yl)oxy)propyl)-11-methyl-8-(2-morpholinoethyl)-5,6,9,11-tetrahydro-4H,8H-pyrazolo[3′,4′:4,5][1]thia[2,8]diazacycloundecino[6,7,8-hi]indole-2-carboxylic acid 7,7-dioxide] | –

Source: patent publication US11401278B2, “Macrocyclic indole derivatives” (The Broad Institute, Inc., priority 2017, dated 2022)
